Assay results reported in patent US20150344457A1, “METHODS OF INHIBITING PRMT5” (EPIZYME, INC., priority 2012, published 2015).
pEC50: −log10 of the molar value.

Test system: Z-138 cells
Test: Z-138 Methylation Assay (In Cell Western for symmetric di-methyl arginine and DNA content)
Assay type: cell-based
Conditions: Homo sapiens, Table D-2, read-out: ICW EC50
How it was run: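 Symmetric di-methyl arginine signal (800 nm) ratioed to DNA content (700 nm) by In Cell Western after four days of compound treatment of Z-138 suspension cells seeded at 50,000 cells/mL. Percent inhibition set between DMSO and 3 μM reference wells; IC50 curves from triplicates.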

| pEC50 | SMILES |
| --- | --- |
| 5.00 to 6.00 | N#Cc1ccccc1-c1cccc(OCC(O)CN2CCc3ccccc3C2)c1 (stereo not drawn) [Compound D93] |
| 5.00 to 6.00 | N#Cc1ccc(-c2cccc(OCC(O)CN3CCc4ccccc4C3)c2)cc1 (stereo not drawn) [Compound D94] |
| 5.00 to 6.00 | Oc1cccc(-c2cccc(OCC(O)CN3CCc4ccccc4C3)c2)c1 (stereo not drawn) [Compound D95] |
